According to patent publication US20260232682A1, “GSPT1 DEGRADER COMPOUNDS” (Captor Therapeutics S.A., priority 2023, published 2026):

Columns and labels:
[1] = target: T1, [GSPT1]-[compound of formula (I)]-[CRBN/DDB1] complex (Homo sapiens, UniProt P15170+Q96SW2); experiment: HTRF ternary complex assay (GSPT1); format: binding; details: read-out: HTRF ternary complex Average pEC50 by molecule (converted)
In short: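 Compounds in dose-response were incubated 180 min at 25 °C with 48 nM GSPT1 and 52.8 nM 6×His-CRBN/DDB1, plus Streptavidin-Eu cryptate and anti-6×His-d2, in buffer with 1 mM DTT and 0.5% DMSO. TR-FRET (665/620) was normalized to DMSO background and fitted with a Hill slope model for EC50/pEC50.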

[2] = target: T2, [IKZF2 ZF2]-[compound]-[CRBN/DDB1] ternary complex (Homo sapiens, UniProt Q96SW2+Q9UKS7); experiment: AlphaLISA assay for off-target recruitment detection, IKZF2 ZF2; format: binding; details: 1 μM compound; normalized to Helios modulator; read-out: Normalized ternary complex response, IKZF2 ZF2
T2 construct: IKZF2 ZF2
In short: (§1)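 Neo-substrate with 40 μg/ml donor beads and 200 nM 6×His-CRBN/DDB1 with 40 μg/ml anti-His acceptor beads were each prepared in PBS pH 7.4 with Tween-20 and 1 mM DTT, preincubated 30 min at RT, then mixed. Compounds at 2% DMSO were incubated 30 min at 25 °C, read at 680/615 nm, and normalised between DMSO background and reference glue maximum.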

[3] = target: T3, [IKZF1 ZF2]-[compound]-[CRBN/DDB1] ternary complex (Homo sapiens, UniProt Q13422+Q96SW2); experiment: AlphaLISA assay for off-target recruitment detection, IKZF1 ZF2; format: binding; details: 1 μM compound; normalized to Lenalidomide; read-out: Normalized ternary complex response, IKZF1 ZF2
T3 construct: IKZF1 ZF2
In short: as §1

[4] = target: [CK1α]-[compound]-[CRBN/DDB1] ternary complex (Homo sapiens, UniProt P48729+Q96SW2); experiment: AlphaLISA assay for off-target recruitment detection, CK1α; format: binding; details: 1 μM compound; normalized to FPFT-2216; read-out: Normalized ternary complex response, CK1α
In short: as §1

[5] = target: T1, [GSPT1]-[compound of formula (I)]-[CRBN/DDB1] complex; experiment: AlphaLISA ternary complex formation assay (GSPT1); format: binding; details: 0.5 h; 1 μM compound; normalized to reference compound CC-885; read-out: Normalized AlphaLISA ternary complex average signal at 1 μM molecule
In short: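 Biotinylated GSPT1 on streptavidin donor beads and 6×His-CRBN/DDB1 on anti-His acceptor beads (each 200 nM before mixing) in HBS pH 7.4 with 0.1% Tween-20 and 1 mM DTT, 2% DMSO final, 30 min at 25 °C. AlphaLISA luminescence is normalized between DMSO background and the reference compound's maximum.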

GSPT1-HiBiT HEK293 cells = experiment: Cell Viability-CTG assay accompanying the Nano-Glo HiBiT assay; format: cell-based; details: 6 hours treatment, viability of GSPT1-HiBiT HEK293 cells
In short: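 HEK293 GSPT1-HiBiT cells treated as for the HiBiT assay, incubated 6 h at 37 °C/5% CO2, then equilibrated to RT. Viability read by CellTiter-Glo luminescence after 4 min shaking and 8 min dark incubation; Mean Minimum values derived by non-linear regression of RLU data.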

T2 sequence (Q9UKS7 140-162 limits assumed): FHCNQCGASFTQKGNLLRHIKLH
T2 sequence (Q96SW2 whole entry): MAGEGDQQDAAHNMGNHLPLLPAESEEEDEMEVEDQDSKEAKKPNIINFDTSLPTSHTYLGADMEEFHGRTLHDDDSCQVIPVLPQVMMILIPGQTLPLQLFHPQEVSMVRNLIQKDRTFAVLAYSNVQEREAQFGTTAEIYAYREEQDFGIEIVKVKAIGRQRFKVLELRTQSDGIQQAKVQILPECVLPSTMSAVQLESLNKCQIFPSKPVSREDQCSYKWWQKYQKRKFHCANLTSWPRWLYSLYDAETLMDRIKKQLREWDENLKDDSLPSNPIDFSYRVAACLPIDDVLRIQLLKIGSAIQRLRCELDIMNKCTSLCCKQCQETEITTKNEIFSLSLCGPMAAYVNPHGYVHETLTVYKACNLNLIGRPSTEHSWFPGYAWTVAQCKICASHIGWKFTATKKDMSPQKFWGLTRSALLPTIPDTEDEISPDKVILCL
T2 sequence (Q16531 whole entry partner): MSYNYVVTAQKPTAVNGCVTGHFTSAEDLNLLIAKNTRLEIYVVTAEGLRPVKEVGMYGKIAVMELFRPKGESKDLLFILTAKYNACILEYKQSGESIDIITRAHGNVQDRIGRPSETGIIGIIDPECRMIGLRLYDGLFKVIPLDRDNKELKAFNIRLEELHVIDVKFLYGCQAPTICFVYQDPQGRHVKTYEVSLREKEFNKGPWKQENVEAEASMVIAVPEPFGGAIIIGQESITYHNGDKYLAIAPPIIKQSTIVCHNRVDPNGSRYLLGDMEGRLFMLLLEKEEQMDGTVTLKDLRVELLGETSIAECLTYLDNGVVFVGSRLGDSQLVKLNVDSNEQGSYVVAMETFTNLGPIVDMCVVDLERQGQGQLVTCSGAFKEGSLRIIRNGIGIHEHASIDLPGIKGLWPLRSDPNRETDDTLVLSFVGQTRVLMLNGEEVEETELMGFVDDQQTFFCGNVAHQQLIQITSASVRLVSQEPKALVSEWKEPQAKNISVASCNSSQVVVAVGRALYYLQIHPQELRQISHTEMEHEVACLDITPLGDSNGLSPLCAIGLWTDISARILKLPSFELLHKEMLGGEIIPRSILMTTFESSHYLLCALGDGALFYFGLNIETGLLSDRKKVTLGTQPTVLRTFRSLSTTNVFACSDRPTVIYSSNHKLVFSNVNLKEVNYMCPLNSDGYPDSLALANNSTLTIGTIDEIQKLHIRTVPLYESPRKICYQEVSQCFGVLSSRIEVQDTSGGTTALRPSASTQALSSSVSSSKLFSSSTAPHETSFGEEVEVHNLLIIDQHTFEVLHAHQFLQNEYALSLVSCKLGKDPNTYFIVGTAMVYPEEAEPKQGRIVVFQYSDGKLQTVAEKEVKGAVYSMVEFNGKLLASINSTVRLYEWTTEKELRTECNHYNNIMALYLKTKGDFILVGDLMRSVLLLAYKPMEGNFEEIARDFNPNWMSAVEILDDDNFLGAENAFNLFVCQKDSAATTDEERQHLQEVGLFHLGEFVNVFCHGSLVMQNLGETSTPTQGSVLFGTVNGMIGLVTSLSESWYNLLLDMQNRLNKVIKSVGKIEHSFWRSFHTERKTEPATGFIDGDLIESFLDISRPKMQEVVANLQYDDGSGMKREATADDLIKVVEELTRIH
T3 sequence (Q13422 145-167 limits assumed): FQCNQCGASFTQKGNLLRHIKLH
T3 sequence (Q96SW2 whole entry): as the sequence (Q96SW2 whole entry) above
T3 sequence (Q16531 whole entry partner): as the sequence (Q16531 whole entry partner) above
[CK1α]-[compound]-[CRBN/DDB1] ternary complex, sequence (P48729 whole entry): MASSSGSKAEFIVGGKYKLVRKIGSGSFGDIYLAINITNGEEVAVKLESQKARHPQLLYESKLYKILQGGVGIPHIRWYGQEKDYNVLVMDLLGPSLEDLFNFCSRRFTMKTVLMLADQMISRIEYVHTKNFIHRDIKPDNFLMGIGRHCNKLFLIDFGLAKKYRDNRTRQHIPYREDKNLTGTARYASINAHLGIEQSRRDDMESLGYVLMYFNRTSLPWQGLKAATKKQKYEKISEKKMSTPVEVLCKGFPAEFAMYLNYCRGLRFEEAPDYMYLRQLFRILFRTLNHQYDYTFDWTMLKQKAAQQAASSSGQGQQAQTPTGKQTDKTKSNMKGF
[CK1α]-[compound]-[CRBN/DDB1] ternary complex, sequence (Q96SW2 whole entry): as the sequence (Q96SW2 whole entry) above
[CK1α]-[compound]-[CRBN/DDB1] ternary complex, sequence (Q16531 whole entry partner): as the sequence (Q16531 whole entry partner) above
T1 sequence (P15170 whole entry): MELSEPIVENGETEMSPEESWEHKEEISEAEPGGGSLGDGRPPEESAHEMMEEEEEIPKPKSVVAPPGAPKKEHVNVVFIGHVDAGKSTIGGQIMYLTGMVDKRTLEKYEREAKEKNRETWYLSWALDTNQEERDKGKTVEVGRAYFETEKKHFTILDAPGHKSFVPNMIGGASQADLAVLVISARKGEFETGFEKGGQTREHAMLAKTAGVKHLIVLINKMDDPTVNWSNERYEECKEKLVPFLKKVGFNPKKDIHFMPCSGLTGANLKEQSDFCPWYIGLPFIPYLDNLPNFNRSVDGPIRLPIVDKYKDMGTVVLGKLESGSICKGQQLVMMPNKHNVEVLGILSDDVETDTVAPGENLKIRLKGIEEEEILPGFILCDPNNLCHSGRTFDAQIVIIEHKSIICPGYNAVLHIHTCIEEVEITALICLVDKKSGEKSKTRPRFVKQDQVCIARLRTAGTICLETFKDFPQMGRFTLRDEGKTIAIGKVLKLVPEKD
T1 sequence (Q96SW2 whole entry): as the sequence (Q96SW2 whole entry) above
T1 sequence (Q16531 whole entry partner): as the sequence (Q16531 whole entry partner) above

Structure (SMILES) | EC50 [1] | activation at 1 µM [2] | activation at 1 µM [3] | activation at 1 µM [4] | activation at 1 µM [5] | CTG assay Mean minimum (GSPT1-HiBiT HEK293 cells)
Cc1nc2cc(COC(=O)Nc3cc(C(F)(F)F)no3)ccc2cc1C1CCC(=O)NC1=O (stereo not drawn) [Compound 71, (3-(2,6-dioxopiperidin-3-yl)-2-methylquinolin-7-yl)methyl (3-(trifluoromethyl)isoxazol-5-yl)carbamate] | > 3.16 µM | < 10% | < 10% | < 10% | > 50% | ++++ (++++≥75% of viability of the HiBiT-GSPT1 HEK293 cells)
Cc1nc2cc(COC(=O)Nc3cc(C(C)(C)C)no3)ccc2cc1N1CCC(=O)NC1=O [Compound 72, (3-(2,4-dioxotetrahydropyrimidin-1(2H)-yl)-2-methylquinolin-7-yl)methyl (3-(tert-butyl)isoxazol-5-yl)carbamate] | 0.316 to 3.16 µM | < 10% | < 10% | < 10% | 10 to 50% | ++++ (++++≥75% of viability of the HiBiT-GSPT1 HEK293 cells)
Cc1ccc(NC(=O)OCc2ccc3cc(C4(F)CCC(=O)NC4=O)c(C)nc3c2)cc1Cl (stereo not drawn) [Compound 74, (3-(3-fluoro-2,6-dioxopiperidin-3-yl)-2-methylquinolin-7-yl)methyl (3-chloro-4-methylphenyl)carbamate] | > 3.16 µM | < 10% | < 10% | < 10% | 10 to 50% | ++++ (++++≥75% of viability of the HiBiT-GSPT1 HEK293 cells)
Cc1nc2cc(COC(=O)Nc3cc(C(C)(C)C)n[nH]3)ccc2cc1C1CCC(=O)NC1=O (stereo not drawn) [Compound 75, (3-(2,6-dioxopiperidin-3-yl)-2-methylquinolin-7-yl)methyl (3-(tert-butyl)-1H-pyrazol-5-yl)carbamate] | 0.316 to 3.16 µM | < 10% | < 10% | < 10% | > 50% | ++++ (++++≥75% of viability of the HiBiT-GSPT1 HEK293 cells)

More lines, main results first:

EC50 [1] | activation at 1 µM [2] | activation at 1 µM [3] | activation at 1 µM [4] | activation at 1 µM [5] | Structure (SMILES) | CTG assay Mean minimum (GSPT1-HiBiT HEK293 cells)
0.316 to 3.16 µM | < 10% | < 10% | < 10% | > 50% | Cc1nc2cc(COC(=O)Nc3nc(C(C)(C)C)no3)ccc2cc1C1CCC(=O)NC1=O (stereo not drawn) [Compound 80, (3-(2,6-dioxopiperidin-3-yl)-2-methylquinolin-7-yl)methyl (3-(tert-butyl)-1,2,4-oxadiazol-5-yl)carbamate] | ++++ (++++≥75% of viability of the HiBiT-GSPT1 HEK293 cells)
< 0.316 µM | < 10% | < 10% | < 10% | > 50% | Cc1nc2cc(COC(=O)Nc3cc(C4(C(F)(F)F)CC4)no3)ccc2cc1C1CCC(=O)NC1=O (stereo not drawn) [Compound 81, (3-(2,6-dioxopiperidin-3-yl)-2-methylquinolin-7-yl)methyl (3-(1-(trifluoromethyl)cyclopropyl)isoxazol-5-yl)carbamate] | ++++ (++++≥75% of viability of the HiBiT-GSPT1 HEK293 cells)
< 0.316 µM | < 10% | < 10% | < 10% | > 50% | [2H]C([2H])(OC(=O)Nc1cc(C(C)(C)C)no1)c1ccc2cc(C3CCC(=O)NC3=O)c(C)nc2c1 (stereo not drawn) [Compound 82, (3-(2,6-dioxopiperidin-3-yl)-2-methylquinolin-7-yl)methyl-d2 (3-(tert-butyl)isoxazol-5-yl)carbamate] | ++++ (++++≥75% of viability of the HiBiT-GSPT1 HEK293 cells)
